How the values were obtained:
Mouse AhR = target: T1, Mouse AhR (Mus musculus, UniProt P30561); test: Transactivation assay in mouse cell line (in vitro assay 2: antagonism); assay type: cell-based; conditions: Hepa 1c1c7 cells, AHR inducible (DRE) firefly luciferase reporter, 200 μM kynurenic acid, 20 hours
T1 sequence (P30561 1-848): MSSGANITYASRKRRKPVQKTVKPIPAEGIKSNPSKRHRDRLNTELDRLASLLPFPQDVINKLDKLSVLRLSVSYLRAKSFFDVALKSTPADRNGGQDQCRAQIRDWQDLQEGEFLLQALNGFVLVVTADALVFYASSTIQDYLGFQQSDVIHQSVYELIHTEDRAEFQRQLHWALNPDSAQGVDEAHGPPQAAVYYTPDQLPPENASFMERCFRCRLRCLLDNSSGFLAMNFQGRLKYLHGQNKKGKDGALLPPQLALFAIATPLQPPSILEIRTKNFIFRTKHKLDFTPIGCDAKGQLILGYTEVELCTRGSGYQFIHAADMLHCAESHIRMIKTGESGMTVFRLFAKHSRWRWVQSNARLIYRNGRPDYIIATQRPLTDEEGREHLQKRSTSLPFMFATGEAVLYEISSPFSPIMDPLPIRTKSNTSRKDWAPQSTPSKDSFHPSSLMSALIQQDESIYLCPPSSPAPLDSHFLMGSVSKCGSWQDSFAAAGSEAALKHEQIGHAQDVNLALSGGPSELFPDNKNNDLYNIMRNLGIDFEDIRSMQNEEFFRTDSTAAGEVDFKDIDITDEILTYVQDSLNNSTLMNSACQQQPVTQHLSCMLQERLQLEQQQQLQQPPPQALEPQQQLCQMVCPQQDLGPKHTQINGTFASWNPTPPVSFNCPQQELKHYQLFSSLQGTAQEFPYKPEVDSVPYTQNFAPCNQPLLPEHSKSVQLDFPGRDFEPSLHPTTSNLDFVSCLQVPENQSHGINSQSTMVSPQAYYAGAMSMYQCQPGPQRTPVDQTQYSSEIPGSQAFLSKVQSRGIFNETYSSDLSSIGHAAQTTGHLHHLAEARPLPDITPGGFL
Description: Transactivation Assay in Mouse Cell Line (In Vitro Assay 2)
(§1) Transactivation assay was carried out in Hepa 1c1c7 cells (ATCC #CRL-2026) endogenously expressing AHR. In addition the cells were stably transfected with an AHR inducible firefly luciferase reporter gene construct that carried AHR-binding sites (DRE) in its promoter. Kynurenic acid is an endogenous AHR activating ligand and was used to prestimulate test cells prior to testing the antagonistic properties of compounds.
In Vitro Assay 2: Antagonism in Mouse Cell Line
Firefly luciferase activity was determined by the SteadyGlo Luciferase Assay System (Promega, #E2550).

Human AhR = target: T2, Human AhR (Homo sapiens, UniProt P35869); test: Transactivation assay in human cell line (in vitro assay 1: antagonism); assay type: cell-based; conditions: U87 glioblastoma cells, AHR inducible (DRE) firefly luciferase reporter, 150 μM kynurenic acid, 20 hours
T2 construct: host or cells: U87 glioblastoma cells, stably transfected with DRE-driven firefly luciferase and constitutive renilla reporter constructs
T2 sequence (P35869 11-848): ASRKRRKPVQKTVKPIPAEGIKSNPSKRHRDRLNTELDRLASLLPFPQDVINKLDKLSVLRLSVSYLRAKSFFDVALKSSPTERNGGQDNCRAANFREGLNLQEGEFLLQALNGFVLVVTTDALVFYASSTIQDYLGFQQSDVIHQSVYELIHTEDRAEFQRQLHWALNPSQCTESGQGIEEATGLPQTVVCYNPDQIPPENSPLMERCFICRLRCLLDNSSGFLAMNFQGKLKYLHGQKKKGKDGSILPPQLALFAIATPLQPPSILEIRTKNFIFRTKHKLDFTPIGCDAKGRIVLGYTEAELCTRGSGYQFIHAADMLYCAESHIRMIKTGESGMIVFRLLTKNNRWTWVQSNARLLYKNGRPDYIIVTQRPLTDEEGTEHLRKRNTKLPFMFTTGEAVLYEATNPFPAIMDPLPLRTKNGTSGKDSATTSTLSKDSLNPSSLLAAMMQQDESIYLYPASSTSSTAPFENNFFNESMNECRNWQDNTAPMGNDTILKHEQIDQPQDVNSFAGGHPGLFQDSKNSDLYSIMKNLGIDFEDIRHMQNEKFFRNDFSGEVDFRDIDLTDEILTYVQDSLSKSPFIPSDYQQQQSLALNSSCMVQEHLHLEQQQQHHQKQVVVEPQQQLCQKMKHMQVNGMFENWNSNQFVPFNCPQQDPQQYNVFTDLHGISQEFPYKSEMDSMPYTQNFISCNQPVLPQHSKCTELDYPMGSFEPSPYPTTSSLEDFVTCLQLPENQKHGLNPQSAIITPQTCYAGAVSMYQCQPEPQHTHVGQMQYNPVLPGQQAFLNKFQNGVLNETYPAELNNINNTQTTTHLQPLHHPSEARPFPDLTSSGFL
Description: Transactivation Assay in Human Cell Line (In Vitro Assay 1)
as §1, with “U87 glioblastoma” for “Hepa 1c1c7”, “(ATCC)” for “(ATCC #CRL-2026)”, “its promoter and a renilla reporter gene construct with constitutively active” for “its”
In Vitro Assay 1: Antagonism in Human Cell Line
Firefly luciferase and Renilla activity was determined by the DualGlo Luciferase Assay System (Promega, #2920). Renilla activity was used to assess toxic effects of compounds.

| Compound | IC50 (Mouse AhR) [nM] | IC50 (Human AhR) [nM] |
| --- | --- | --- |
| C[C@@H](CO)NC(=O)c1cc(-c2ccc(OC(F)(F)F)cc2)nc(-c2ccc(Cl)s2)n1 [Example 32, 2-(5-chlorothiophen-2-yl)-N-[(2S)-1-hydroxypropan-2-yl]-6-[4-(trifluoromethoxy)phenyl]pyrimidine-4-carboxamide] | 38.8 | 46.2 |
| CC(C)(O)CNC(=O)c1cc(-c2ccc(Cl)cc2)nc(-c2cncnc2)n1 [Example 55, 6-(4-chlorophenyl)-N-(2-hydroxy-2-methylpropyl)[2,5′-bipyrimidine]-4-carboxamide] | 17.3 | 10.3 |
| Cn1cc(-c2nc(C(=O)NCC(C)(C)O)cc(-c3ccc(C(F)(F)F)cc3)n2)cn1 [Example 8, N-(2-hydroxy-2-methylpropyl)-2-(1-methyl-1H-pyrazol-4-yl)-6-[4-(trifluoromethyl)phenyl]pyrimidine-4-carboxamide] | 7.19 | 2.57 |
| C[C@H](CO)NC(=O)c1cc(-c2ccc(OC(F)(F)F)cc2)nc(-c2cccnc2)n1 [Example 2, N-[(2R)-1-hydroxypropan-2-yl]-2-(pyridin-3-yl)-6-[4-(trifluoromethoxy)phenyl]pyrimidine-4-carboxamide] | 20.3 | 2.88 |
| CC(C)(O)CNC(=O)c1cc(-c2ccc(OC(F)(F)F)cc2)nc(-c2cccnc2)n1 [Example 3, N-(2-hydroxy-2-methylpropyl)-2-(pyridin-3-yl)-6-[4-(trifluoromethoxy)phenyl]pyrimidine-4-carboxamide] | 7.81 | 3.86 |
| C[C@@H](CO)NC(=O)c1cc(-c2ccc(Cl)cc2)nc(-c2ccnn2C)n1 [Example 74, 6-(4-chlorophenyl)-N-[(2S)-1-hydroxypropan-2-yl]-2-(1-methyl-1H-pyrazol-5-yl)pyrimidine-4-carboxamide] | 62.9 | 33.6 |
| C[C@H](NC(=O)c1cc(-c2ccc(C(F)F)cc2)nc(-c2cccnc2)n1)C(C)(C)O [Example 119, 6-[4-(difluoromethyl)phenyl]-N-[(2S)-3-hydroxy-3-methylbutan-2-yl]-2-(pyridin-3-yl)pyrimidine-4-carboxamide] | 6.81 | 2.88 |
| CC(NC(=O)c1cc(-c2ccc(OC(F)(F)F)cc2)nc(-c2cnn(C)c2)n1)C(O)CO (stereo not drawn) [Example 104, N-(3,4-dihydroxybutan-2-yl)-2-(1-methyl-1H-pyrazol-4-yl)-6-[4-(trifluoromethoxy)phenyl]pyrimidine-4-carboxamide] | 20.4 | 12.5 |
| Cn1cc(-c2nc(C(=O)N[C@@H]3CCC[C@H]3O)cc(-c3ccc(OC(F)(F)F)cc3)n2)cn1 (stereo in doubt) [Example 96, N-[(trans)-2-hydroxycyclopentyl]-2-(1-methyl-1H-pyrazol-4-yl)-6-[4-(trifluoromethoxy)phenyl]pyrimidine-4-carboxamide] | 56.1 | 53.2 |
| Cc1ccc(-c2nc(C(=O)N[C@@H](C)CO)cc(-c3ccc(Cl)cc3)n2)cn1 [Example 79, 6-(4-chlorophenyl)-N-[(2S)-1-hydroxypropan-2-yl]-2-(6-methylpyridin-3-yl)pyrimidine-4-carboxamide] | 671 | 108 |
| Cn1cc(-c2nc(C(=O)N[C@@H]3CC[C@H]3O)cc(-c3ccc(OC(F)(F)F)cc3)n2)cn1 (relative stereo) [Example 86, N-[(trans)-2-hydroxycyclobutyl]-2-(1-methyl-1H-pyrazol-4-yl)-6-[4-(trifluoromethoxy)phenyl]pyrimidine-4-carboxamide] | 7.07 | 5.74 |
| Cn1cc(-c2nc(C(=O)N[C@H]3CCCC[C@@H]3O)cc(-c3ccc(OC(F)(F)F)cc3)n2)cn1 (relative stereo) [Example 92, N-[(trans)-2-hydroxycyclohexyl]-2-(1-methyl-1H-pyrazol-4-yl)-6-[4-(trifluoromethoxy)phenyl]pyrimidine-4-carboxamide] | 5.79 | 4.27 |
| Cn1cc(-c2nc(C(=O)N[C@@H](C#N)CO)cc(-c3ccc(OC(F)(F)F)cc3)n2)cn1 [Example 101, N-[(1S)-1-cyano-2-hydroxyethyl]-2-(1-methyl-1H-pyrazol-4-yl)-6-[4-(trifluoromethoxy)phenyl]pyrimidine-4-carboxamide] | 18.9 | 22.3 |
| Cn1cc(-c2nc(C(=O)NC(CO)(CO)C(F)(F)F)cc(-c3ccc(OC(F)(F)F)cc3)n2)cn1 [Example 89, 2-(1-methyl-1H-pyrazol-4-yl)-N-[1,1,1-trifluoro-3-hydroxy-2-(hydroxymethyl)propan-2-yl]-6-[4-(trifluoromethoxy)phenyl]pyrimidine-4-carboxamide] | 4.34 | 7.95 |
| C[C@@H](CO)NC(=O)c1cc(-c2ccc(OC(F)(F)F)cc2)nc(-c2cccnc2)n1 [Example 1, N-[(2S)-1-hydroxypropan-2-yl]-2-(pyridin-3-yl)-6-[4-(trifluoromethoxy)phenyl]pyrimidine-4-carboxamide] | 2.03 | 0.885 |
| COc1ccncc1-c1nc(C(=O)NCC(C)(C)O)cc(-c2ccc(Cl)cc2)n1 [Example 61, 6-(4-chlorophenyl)-N-(2-hydroxy-2-methylpropyl)-2-(4-methoxypyridin-3-yl)pyrimidine-4-carboxamide] | 4.8 |  |
| CC(C)[C@@H](CO)NC(=O)c1cc(-c2ccc(OC(F)(F)F)cc2)nc(-c2cnn(C)c2)n1 [Example 116, N-[(2S)-1-hydroxy-3-methylbutan-2-yl]-2-(1-methyl-1H-pyrazol-4-yl)-6-[4-(trifluoromethoxy)phenyl]pyrimidine-4-carboxamide] | 1.97 |  |
| CC(C)(O)CNC(=O)c1cc(-c2ccc(C(F)(F)F)cc2)nc(-c2cccnc2)n1 [Example 7, N-(2-hydroxy-2-methylpropyl)-2-(pyridin-3-yl)-6-[4-(trifluoromethyl)phenyl]pyrimidine-4-carboxamide] | 12.7 |  |
| CC(C)(O)CNC(=O)c1cc(-c2ccc(C(F)F)cc2)nc(-c2cccnc2)n1 [Example 120, 6-[4-(difluoromethyl)phenyl]-N-(2-hydroxy-2-methylpropyl)-2-(pyridin-3-yl)pyrimidine-4-carboxamide] | 10.2 |  |
| CC(C)Cn1cc(-c2nc(C(=O)N[C@@H](C)CO)cc(-c3ccc(Cl)cc3)n2)cn1 [Example 77, 6-(4-chlorophenyl)-N-[(2S)-1-hydroxypropan-2-yl]-2-[1-(2-methylpropyl)-1H-pyrazol-4-yl]pyrimidine-4-carboxamide] |  | 1180 |
| COc1ccc(-c2nc(C(=O)N[C@@H](C)CO)cc(-c3ccc(Cl)cc3)n2)cn1 [Example 69, 6-(4-chlorophenyl)-N-[(2S)-1-hydroxypropan-2-yl]-2-(6-methoxypyridin-3-yl)pyrimidine-4-carboxamide] |  | 342 |
